{"source": "ChEMBL document CHEMBL1142165", "about": "“Influence on mitochondria and cytotoxicity of different antibiotics administered in high concentrations on primary human osteoblasts and cell lines” (Antimicrob Agents Chemother, 2007)", "key": {"[1]": {"assay": "Antiproliferative effect against primary human osteoblasts assessed as BrdU incorporation into DNA after 48 hrs", "assay_type": "functional, cell-based", "details": "Osteoblast"}, "MG-63 [2]": {"tested_on": "MG-63", "assay": "Antiproliferative effect against MG63 cells assessed as BrdU incorporation into DNA after 48 hrs after 48 hrs", "assay_type": "functional, cell-based", "details": "Homo sapiens, MG-63, 48 h"}, "HeLa [3]": {"tested_on": "HeLa", "assay": "Antiproliferative effect against HeLa cells after 48 hrs", "assay_type": "functional, cell-based", "details": "Homo sapiens"}, "Osteoblast [4]": {"tested_on": "Osteoblast", "assay": "Increase in lactate production in primary human osteoblasts at 400 ug/ml by ELISA relative to control", "assay_type": "functional"}, "Osteoblast [5]": {"tested_on": "Osteoblast", "assay": "Inhibition of metabolic activity in primary human osteoblasts assessed as MTT reduction after 48 hrs", "assay_type": "functional, cell-based"}, "MG-63 [6]": {"tested_on": "MG-63", "assay": "Inhibition of metabolic activity in MG63 cells assessed as MTT reduction after 48 hrs", "assay_type": "functional, cell-based", "details": "Homo sapiens, MG-63, 48 h"}, "HeLa [7]": {"tested_on": "HeLa", "assay": "Inhibition of metabolic activity in HeLa cells assessed as MTT reduction after 48 hrs", "assay_type": "functional, cell-based", "details": "Homo sapiens"}, "Osteoblast [8]": {"tested_on": "Osteoblast", "assay": "Increase in lactate production in primary human osteoblasts at 1.5 ug/ml by ELISA", "assay_type": "functional"}, "Osteoblast [9]": {"tested_on": "Osteoblast", "assay": "Antiproliferative effect against primary human osteoblasts in presence of 10% FCS", "assay_type": "functional, cell-based"}, "[10]": {"assay": "Cytotoxicity against primary human osteoblasts at 400 ug/ml assessed as LDH release after 24 hrs", "details": "osteoblast, at 400 µg/mL"}, "[11]": {"assay": "Cytotoxicity against primary human osteoblasts at 100 ug/ml assessed as LDH release after 24 hrs", "assay_type": "cell-based", "details": "osteoblast"}, "[12]": {"assay": "Cytotoxicity against primary human osteoblasts at 200 ug/ml assessed as LDH release after 24 hrs", "assay_type": "cell-based", "details": "osteoblast"}, "Osteoblast [13]": {"tested_on": "Osteoblast", "assay": "Antiproliferative effect against primary human osteoblasts assessed as BrdU incorporation into DNA at 10 ug/ml after 48 hrs", "assay_type": "functional, cell-based"}, "Osteoblast [14]": {"tested_on": "Osteoblast", "assay": "Increase in lactate production in primary human osteoblasts at 25 to 50 ug/ml by ELISA", "assay_type": "functional"}, "MG-63 [15]": {"tested_on": "MG-63", "assay": "Increase in lactate production in MG63 cells at 400 ug/ml by ELISA relative to control", "assay_type": "functional, Homo sapiens"}, "Osteoblast [16]": {"tested_on": "Osteoblast", "assay": "Increase in lactate production in primary human osteoblasts at 1 uM after 1 hr by ELISA", "assay_type": "functional, cell-based"}, "MG-63 [17]": {"tested_on": "MG-63", "assay": "Increase in lactate production in MG63 cells at 1 uM after 1 hr by ELISA", "assay_type": "functional, cell-based", "details": "Homo sapiens"}, "Osteoblast [18]": {"tested_on": "Osteoblast", "assay": "Blocking of clindamycin-induced lactate production in primary human osteoblasts at 20 mM by ELISA", "assay_type": "functional, cell-based"}, "Osteoblast [19]": {"tested_on": "Osteoblast", "assay": "Blocking of clindamycin-induced LDH release in primary human osteoblasts at 20mM by ELISA", "assay_type": "functional, cell-based"}}, "note": "Active and inactive are the calls of the source. The rule behind the calls is not given here."}
{"smiles": "CO[C@H]1/C=C/O[C@@]2(C)Oc3c(C)c(O)c4c(O)c(c(/C=N/N5CCN(C)CC5)c(O)c4c3C2=O)NC(=O)/C(C)=C\\C=C\\[C@H](C)[C@H](O)[C@@H](C)[C@@H](O)[C@@H](C)[C@H](OC(C)=O)[C@@H]1C", "note": "[RIFAMPIN]", "values": [{"measurement": "IC20", "setting": "[1]", "result": 30, "unit": "µg/mL"}, {"measurement": "IC50", "setting": "[1]", "result": 130, "unit": "µg/mL"}, {"measurement": "IC20", "setting": "MG-63 [2]", "result": 120, "unit": "µg/mL"}, {"measurement": "IC50", "setting": "MG-63 [2]", "result": 240, "unit": "µg/mL"}, {"measurement": "IC20", "setting": "HeLa [3]", "result": 180, "unit": "µg/mL"}, {"measurement": "IC50", "setting": "HeLa [3]", "result": 270, "unit": "µg/mL"}, {"measurement": "Activity", "setting": "Osteoblast [4]", "result": 40, "unit": "%"}]}
{"smiles": "O=C(N[C@H](CO)[C@H](O)c1ccc([N+](=O)[O-])cc1)C(Cl)Cl", "note": "[CHLORAMPHENICOL]", "values": [{"measurement": "IC20", "setting": "[1]", "result": 60, "unit": "µg/mL"}, {"measurement": "IC50", "setting": "[1]", "result": 230, "unit": "µg/mL"}, {"measurement": "IC20", "setting": "Osteoblast [5]", "result": 260, "unit": "µg/mL"}, {"measurement": "IC50", "setting": "Osteoblast [5]", "result": "> 400", "unit": "µg/mL"}, {"measurement": "IC20", "setting": "MG-63 [2]", "result": 200, "unit": "µg/mL"}, {"measurement": "IC50", "setting": "MG-63 [2]", "result": "> 400", "unit": "µg/mL"}, {"measurement": "IC20", "setting": "MG-63 [6]", "result": 110, "unit": "µg/mL"}, {"measurement": "IC50", "setting": "MG-63 [6]", "result": 400, "unit": "µg/mL"}, {"measurement": "IC20", "setting": "HeLa [3]", "result": 340, "unit": "µg/mL"}, {"measurement": "IC50", "setting": "HeLa [3]", "result": "> 400", "unit": "µg/mL"}, {"measurement": "IC20", "setting": "HeLa [7]", "result": 100, "unit": "µg/mL"}, {"measurement": "IC50", "setting": "HeLa [7]", "result": 340, "unit": "µg/mL"}, {"measurement": "Activity", "setting": "Osteoblast [4]", "result": 150, "unit": "%"}, {"measurement": "Activity", "setting": "Osteoblast [8]", "result": 12, "unit": "%"}, {"measurement": "Activity", "setting": "Osteoblast [9]", "result": "Active"}]}
{"smiles": "CC[C@H]1OC(=O)[C@H](C)[C@@H](O[C@H]2C[C@@](C)(OC)[C@@H](O)[C@H](C)O2)[C@H](C)[C@@H](O[C@@H]2O[C@H](C)C[C@H](N(C)C)[C@H]2O)[C@](C)(O)C[C@@H](C)/C(=N\\OCOCCOC)[C@H](C)[C@@H](O)[C@]1(C)O", "note": "[ROXITHROMYCIN]", "values": [{"measurement": "Activity", "setting": "[10]", "result": 40, "unit": "%"}, {"measurement": "Activity", "setting": "[11]", "result": 20, "unit": "%"}, {"measurement": "Activity", "setting": "[12]", "result": 30, "unit": "%"}, {"measurement": "IC20", "setting": "[1]", "result": 20, "unit": "µg/mL"}, {"measurement": "IC50", "setting": "[1]", "result": 70, "unit": "µg/mL"}, {"measurement": "IC20", "setting": "Osteoblast [5]", "result": 110, "unit": "µg/mL"}, {"measurement": "IC50", "setting": "Osteoblast [5]", "result": 210, "unit": "µg/mL"}, {"measurement": "IC20", "setting": "MG-63 [2]", "result": 50, "unit": "µg/mL"}, {"measurement": "IC50", "setting": "MG-63 [2]", "result": 180, "unit": "µg/mL"}, {"measurement": "IC20", "setting": "MG-63 [6]", "result": 50, "unit": "µg/mL"}, {"measurement": "IC50", "setting": "MG-63 [6]", "result": 110, "unit": "µg/mL"}, {"measurement": "IC20", "setting": "HeLa [3]", "result": 100, "unit": "µg/mL"}, {"measurement": "IC50", "setting": "HeLa [3]", "result": 160, "unit": "µg/mL"}, {"measurement": "IC20", "setting": "HeLa [7]", "result": 30, "unit": "µg/mL"}, {"measurement": "IC50", "setting": "HeLa [7]", "result": 90, "unit": "µg/mL"}]}
{"smiles": "COc1c(N2C[C@@H]3CCCN[C@@H]3C2)c(F)cc2c(=O)c(C(=O)O)cn(C3CC3)c12", "note": "[MOXIFLOXACIN]", "values": [{"measurement": "Activity", "setting": "[10]", "result": 10, "unit": "%"}, {"measurement": "IC20", "setting": "[1]", "result": 80, "unit": "µg/mL"}, {"measurement": "IC50", "setting": "[1]", "result": 160, "unit": "µg/mL"}, {"measurement": "IC20", "setting": "Osteoblast [5]", "result": 190, "unit": "µg/mL"}, {"measurement": "IC50", "setting": "Osteoblast [5]", "result": "> 400", "unit": "µg/mL"}, {"measurement": "IC20", "setting": "MG-63 [2]", "result": 110, "unit": "µg/mL"}, {"measurement": "IC50", "setting": "MG-63 [2]", "result": 230, "unit": "µg/mL"}, {"measurement": "IC20", "setting": "MG-63 [6]", "result": 30, "unit": "µg/mL"}, {"measurement": "IC50", "setting": "MG-63 [6]", "result": 170, "unit": "µg/mL"}, {"measurement": "IC20", "setting": "HeLa [3]", "result": 90, "unit": "µg/mL"}, {"measurement": "IC50", "setting": "HeLa [3]", "result": 320, "unit": "µg/mL"}, {"measurement": "IC20", "setting": "HeLa [7]", "result": 40, "unit": "µg/mL"}, {"measurement": "IC50", "setting": "HeLa [7]", "result": 110, "unit": "µg/mL"}, {"measurement": "Activity", "setting": "Osteoblast [13]", "result": "Active"}, {"measurement": "Activity", "setting": "Osteoblast [14]", "result": 10, "unit": "%"}]}
{"smiles": "CC[C@H]1OC(=O)[C@H](C)[C@@H](O[C@H]2C[C@@](C)(OC)[C@@H](O)[C@H](C)O2)[C@H](C)[C@@H](O[C@@H]2O[C@H](C)C[C@H](N(C)C)[C@H]2O)[C@](C)(O)C[C@@H](C)CN(C)[C@H](C)[C@@H](O)[C@]1(C)O", "note": "[AZITHROMYCIN]", "values": [{"measurement": "Activity", "setting": "[10]", "result": 40, "unit": "%"}, {"measurement": "Activity", "setting": "[11]", "result": 20, "unit": "%"}, {"measurement": "Activity", "setting": "[12]", "result": 40, "unit": "%"}, {"measurement": "IC20", "setting": "[1]", "result": 20, "unit": "µg/mL"}, {"measurement": "IC50", "setting": "[1]", "result": 25, "unit": "µg/mL"}, {"measurement": "IC20", "setting": "Osteoblast [5]", "result": 80, "unit": "µg/mL"}, {"measurement": "IC50", "setting": "Osteoblast [5]", "result": 160, "unit": "µg/mL"}, {"measurement": "IC20", "setting": "MG-63 [2]", "result": 30, "unit": "µg/mL"}, {"measurement": "IC50", "setting": "MG-63 [2]", "result": 190, "unit": "µg/mL"}, {"measurement": "IC20", "setting": "MG-63 [6]", "result": 70, "unit": "µg/mL"}, {"measurement": "IC50", "setting": "MG-63 [6]", "result": 180, "unit": "µg/mL"}, {"measurement": "IC20", "setting": "HeLa [3]", "result": 110, "unit": "µg/mL"}, {"measurement": "IC50", "setting": "HeLa [3]", "result": 240, "unit": "µg/mL"}, {"measurement": "IC20", "setting": "HeLa [7]", "result": 50, "unit": "µg/mL"}, {"measurement": "IC50", "setting": "HeLa [7]", "result": 160, "unit": "µg/mL"}, {"measurement": "Activity", "setting": "MG-63 [15]", "result": 30, "unit": "%"}]}
{"smiles": "C=C(C)[C@H]1Cc2c(ccc3c2O[C@@H]2COc4cc(OC)c(OC)cc4[C@@H]2C3=O)O1", "values": [{"measurement": "Activity", "setting": "Osteoblast [16]", "result": "Active"}, {"measurement": "Activity", "setting": "MG-63 [17]", "result": "Active"}]}
{"smiles": "Nc1ncnc2c1ncn2[C@@H]1O[C@H](CO)[C@@H](O)[C@H]1O", "values": [{"measurement": "Activity", "setting": "Osteoblast [18]", "result": "Active"}, {"measurement": "Activity", "setting": "Osteoblast [19]", "result": "Active"}]}
